Results taken from patent US20240336601A1 (Chulalongkorn University, priority 2020, published 2024).

Legend:
PD-1/PD-L1 interaction = target: T1, PD-1/PD-L1 interaction (Homo sapiens, UniProt Q9NZQ7); experiment: PD-1/PD-L1 blockage cell-based bioassay (Jurkat NFAT luciferase / CHO-PDL1 co-culture); settings: Jurkat NFAT cells co-cultured with CHO-PDL1 cells, 6 h, luminescence
T1 construct: expressed in transfected cells
Experimental: PD-1/PD-L1 Blockage Cell-Based Bioassay
Jurkat T cells expressing human PD-1 and luciferase gene reporter driven by TCR-mediated NFAT response element (Jurkat NFAT) were co-cultured with CHO-kl cells expressing human PD-L1 and surface-bound TCR activator (CHO-PDL1). […] CHO-PDL1 cells (20,000 cells/well) were seeded overnight. Compounds were added on CHO-PDL1 and incubated for 2 h at 37° C. Jurkat NFAT cells (20,000 cells/well) were diluted in RPMI assay medium (RPMI1640 with 1% FBS) and added into each well. After co-incubation for 6 h at 37° C., luminescence was determined by adding Bio-Glo™ Luciferase reagent (Promega) and measured with a luminescence plate reader. EC50 values were calculated from the four-parameter concentration-response curves.

[1] = target: interaction between PD-1 and PD-L1 (Homo sapiens, UniProt Q9NZQ7); experiment: PD-1/PD-L1 protein-protein interaction assay (ALPHA); type: binding; settings: 2 nM His-tagged human PD-L1, 0.6 nM PD-1-Fc, AlphaScreen
Sequence of interaction between PD-1 and PD-L1 (Q9NZQ7 19-238 limits assumed): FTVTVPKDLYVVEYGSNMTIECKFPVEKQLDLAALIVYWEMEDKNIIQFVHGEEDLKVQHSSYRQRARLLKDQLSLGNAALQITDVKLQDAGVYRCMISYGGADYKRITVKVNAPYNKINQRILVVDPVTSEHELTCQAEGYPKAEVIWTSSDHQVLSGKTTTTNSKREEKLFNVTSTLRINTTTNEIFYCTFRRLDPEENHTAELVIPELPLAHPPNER
Experimental: PD-1′PD-L1 Protein-Protein Interaction Assay
Amplified Luminescent Proximity Homogeneous Assay (ALPHA) platform was used to evaluate the ability of the compounds to block the interaction between PD-1 and PD-L1. The assays were performed in half volume white 96-well plate in a final volume of 40 μl. Compounds at various concentrations were preincubated with 2 nM His tagged recombinant human PD-L1 protein and 0.6 nM recombinant PD-1 protein with Fc-tag (both reagents were purchased from AcroBiosystems) for 40 minutes. After the preincubation, 20 μg/mL of Alphascreen Ni chelate donor beads (PerkinElmer, USA) and Protein A acceptor beads (PerkinElmer, USA) were added into the well and incubated under reduced light at 25° C. for 120 minutes. The signal was measured with the EnSight Multimode Plate Reader. IC50 values were calculated from the four-parameter logistic curve fit.

T1 sequence (Q9NZQ7 19-290): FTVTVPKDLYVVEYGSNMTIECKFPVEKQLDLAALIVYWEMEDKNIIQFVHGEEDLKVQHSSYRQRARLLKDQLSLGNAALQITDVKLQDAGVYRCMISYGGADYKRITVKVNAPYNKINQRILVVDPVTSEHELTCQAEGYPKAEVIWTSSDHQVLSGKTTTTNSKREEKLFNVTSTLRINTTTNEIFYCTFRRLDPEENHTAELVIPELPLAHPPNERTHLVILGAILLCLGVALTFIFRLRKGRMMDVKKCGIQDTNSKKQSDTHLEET

Row | SMILES | IC50 (PD-1/PD-L1 interaction) [nM] | IC50 [1] [nM]
1 | COc1cc(-n2ncc3c(-c4cccc(-c5ccc(CN6CC(C(C)(C)O)C6)c(OC)n5)c4C)cccc32)cc(OC)c1CN1CC(C(C)(C)O)C1 [Example 136, 2-(1-((6-(3-(1-(4-((3-(2-hydroxypropan-2-yl)azetidin-1-yl)methyl)-3,5-dimethoxyphenyl)-1H-indazol-4-yl)-2-methylphenyl)-2-methoxypyridin-3-yl)methyl)azetidin-3-yl)propan-2-ol] | 201 to 2000 | < 1
2 | COc1cc(-n2ncc3c(-c4cccc(-c5ccc(CN6CC7(CNC(=O)C7)C6)c(OC)n5)c4Cl)cccc32)cc(OC)c1CN[C@@](C)(CO)C(=O)O [Example 139, (S)-2-((4-(4-(2-chloro-3-(6-methoxy-5-((7-oxo-2,6-diazaspiro[3.4]octan-2-yl)methyl)pyridin-2-yl)phenyl)-1H-indazol-1-yl)-2,6-dimethoxybenzyl)amino)-3-hydroxy-2-methylpropanoic acid] | < 200 | < 1
3 | COc1cc(-n2ncc3c(-c4cccc(-c5ccc(CN[C@H]6C[C@@H](O)C6)c(OC)n5)c4Cl)cccc32)cc(OC)c1CN[C@H](CO)C(=O)O [Example 126, (4-(4-(2-chloro-3-(5-(((cis-3-hydroxycyclobutyl)amino)methyl)-6-methoxypyridin-2-yl)phenyl)-1H-indazol-1-yl)-2,6-dimethoxybenzyl)-D-serine] | < 200 | < 1
4 | COc1cc(-n2ccc3c(-c4cccc(-c5ccc(CNC[C@@H]6CCC(=O)N6)c(OC)n5)c4Cl)ccnc32)cc(OC)c1CN1CC(C)(C(=O)NC2CC2)C1 [Example 46] | > 2000 | 1 to 10
5 | COc1cc(-n2ccc3c(-c4cccc(-c5ccc(CNC[C@H]6C[C@@H](O)C6)c(OC)n5)c4Cl)cccc32)cc(OC)c1CNC[C@@H]1CCC(=O)N1 [Example 82, (S)-5-(((4-(4-(2-chloro-3-(5-((((cis-3-hydroxycyclobutyl)methyl)amino)methyl)-6-methoxypyridin-2-yl)phenyl)-1H-indol-1-yl)-2,6-dimethoxybenzyl)amino)methyl)pyrrolidin-2-one] | 201 to 2000 | 1 to 10
6 | CCOC(=O)C1(C)CN(Cc2c(OC)cc(-n3ncc4c(-c5cccc(-c6ccc(CNC[C@@H]7CCC(=O)N7)c(OC)n6)c5Cl)cccc43)cc2OC)C1 [Example 151, ethyl (S)-1-(4-(4-(2-chloro-3-(6-methoxy-5-((((5-oxopyrrolidin-2-yl)methyl)amino)methyl)pyridin-2-yl)phenyl)-1H-indazol-1-yl)-2,6-dimethoxybenzyl)-3-methylazetidine-3-carboxylate] | < 200 | 1 to 10
7 | COc1cc(-n2ncc3c(-c4cccc(-c5ccc(CN6CC7(CNC(=O)C7)C6)c(OC)n5)c4Cl)cccc32)cc(OC)c1CN1CC(C)(C(N)=O)C1 [Example 103, 1-(4-(4-(2-chloro-3-(6-methoxy-5-((7-oxo-2,6-diazaspiro[3.4]octan-2-yl)methyl)pyridin-2-yl)phenyl)-1H-indazol-1-yl)-2,6-dimethoxybenzyl)-3-methylazetidine-3-carboxamide] | < 200 | 1 to 10
8 | COc1cc(-n2ncc3c(-c4cccc(-c5ccc(CNC[C@@H]6CCC(=O)N6)c(OC)n5)c4Cl)cccc32)cc(OC)c1CN[C@H](CO)C(=O)O [Example 123, (4-(4-(2-chloro-3-(6-methoxy-5-(((((S)-5-oxopyrrolidin-2-yl)methyl)amino)methyl)pyridin-2-yl)phenyl)-1H-indazol-1-yl)-2,6-dimethoxybenzyl)-D-serine] | < 200 | < 1
9 | COc1cc(-n2ncc3c(-c4cccc(-c5ccc(CN6CC7(CNC(=O)C7)C6)c(OC)n5)c4Cl)cccc32)ncc1CNC[C@@H]1CCC(=O)N1 [Example 108, (S)-2-((6-(2-chloro-3-(1-(4-methoxy-5-((((5-oxopyrrolidin-2-yl)methyl)amino)methyl)pyridin-2-yl)-1H-indazol-4-yl)phenyl)-2-methoxypyridin-3-yl)methyl)-2,6-diazaspiro[3.4]octan-7-one] | < 200 | < 1
10 | COc1cc(-n2ncc3c(-c4cccc(-c5ccc(CN6CC7(CNC(=O)C7)C6)c(OC)n5)c4Cl)cccc32)ncc1CN[C@H]1C[C@@H](O)C1 [Example 111, 2-((6-(2-chloro-3-(1-(5-(((cis-3-hydroxycyclobutyl)amino)methyl)-4-methoxypyridin-2-yl)-1H-indazol-4-yl)phenyl)-2-methoxypyridin-3-yl)methyl)-2,6-diazaspiro[3.4]octan-7-one] | 201 to 2000 | < 1
11 | COc1cc(-n2ncc3c(-c4cccc(-c5ccc(CN6CC(C)(C(N)=O)C6)c(OC)n5)c4Cl)cccc32)cc(OC)c1CN1CC(C)(O)C1 [Example 104, 1-((6-(2-chloro-3-(1-(4-((3-hydroxy-3-methylazetidin-1-yl)methyl)-3,5-dimethoxyphenyl)-1H-indazol-4-yl)phenyl)-2-methoxypyridin-3-yl)methyl)-3-methylazetidine-3-carboxamide] | 201 to 2000 | 1 to 10
12 | COc1cc(-n2ccc3c(-c4cccc(-c5ccc(CN6CC7(CNC(=O)C7)C6)c(OC)n5)c4Cl)cccc32)cc(OC)c1CNC[C@@H]1CCC(=O)N1 [Example 96, (S)-2-((6-(2-chloro-3-(1-(3,5-dimethoxy-4-((((5-oxopyrrolidin-2-yl)methyl)amino)methyl)phenyl)-1H-indol-4-yl)phenyl)-2-methoxypyridin-3-yl)methyl)-2,6-diazaspiro[3.4]octan-7-one] | 201 to 2000 | 1 to 10
13 | COc1cc(-n2ncc3c(-c4cccc(Nc5nc(C(F)F)nc6cc(CN7CC[C@@H](O)C7)cnc56)c4C)cccc32)cc(OC)c1CN1CC[C@@](C)(C(=O)O)C1 [Example 158, (R)-1-(4-(4-(3-((2-(difluoromethyl)-7-(((R)-3-hydroxypyrrolidin-1-yl)methyl)pyrido[3,2-d]pyrimidin-4-yl)amino)-2-methylphenyl)-1H-indazol-1-yl)-2,6-dimethoxybenzyl)-3-methylpyrrolidine-3-carboxylic acid] | < 200 | < 1
14 | COc1cc(-n2ncc3c(-c4cccc(-c5ccc(CN6CC[C@@H](O)C6)c(OC)n5)c4Cl)cccc32)cc(OC)c1CNC[C@@H]1CCC(=O)N1 [Example 87, (S)-5-(((4-(4-(2-chloro-3-(5-(((R)-3-hydroxypyrrolidin-1-yl)methyl)-6-methoxypyridin-2-yl)phenyl)-1H-indazol-1-yl)-2,6-dimethoxybenzyl)amino)methyl) pyrrolidin-2-one] | > 2000 | 1 to 10
15 | COc1cc(-n2ccc3c(-c4cccc(-c5ccc(CNC[C@@H]6CCC(=O)N6)c(OC)n5)c4Cl)cccc32)cc(OC)c1CNCC(C)(C)C(N)=O [Example 39] | 201 to 2000 | < 1
16 | COc1cc(-n2ccc3c(-c4cccc(-c5ccc(CN6CC(C)(C(=O)O)C6)c(OC)n5)c4Cl)ccnc32)cc(OC)c1CNC[C@@H]1CCC(=O)N1 [Example 70, (S)-1-((6-(2-chloro-3-(1-(3,5-dimethoxy-4-((((5-oxopyrrolidin-2-yl)methyl)amino)methyl)phenyl)-1H-pyrrolo[2,3-b]pyridin-4-yl)phenyl)-2-methoxypyridin-3-yl)methyl)-3-methylazetidine-3-carboxylic acid] | > 2000 | 1 to 10
17 | COc1cc(-n2ncc3c(-c4cccc(-c5ccc(C6=NCCN6)c(OC)n5)c4Cl)cccc32)cc(OC)c1CN1CC2(CNC(=O)C2)C1 [Example 76, 2-(4-(4-(2-chloro-3-(5-(4,5-dihydro-1H-imidazol-2-yl)-6-methoxypyridin-2-yl)phenyl)-1H-indazol-1-yl)-2,6-dimethoxybenzyl)-2,6-diazaspiro[3.4]octan-7-one] | < 200 | < 1
18 | COc1cc(-n2ncc3c(-c4cccc(-c5nc6cc(CN(C)C78CCC(C(=O)O)(CC7)CC8)cc(C#N)c6o5)c4C)cccc32)cc(OC)c1CN1CC(O)C1 [Example 159, 4-(((7-cyano-2-(3-(1-(4-((3-hydroxyazetidin-1-yl)methyl)-3,5-dimethoxyphenyl)-1H-indazol-4-yl)-2-methylphenyl)benzo[d]oxazol-5-yl)methyl)(methyl)amino)bicyclo[2.2.2]octane-1-carboxylic acid] | < 200 | < 1
19 | COc1cc(-n2ncc3c(-c4cccc(-c5ccc(CNC[C@H]6C[C@@H](O)C6)c(OC)n5)c4Cl)cccc32)cc(OC)c1CN1CC(C)(C(=O)O)C1 [Example 47] | < 200 | < 1
20 | COc1cc(-n2ncc3c(-c4cccc(-c5ccc(C6=NCCN6)c(OC)n5)c4Cl)cccc32)cc(OC)c1CNC[C@@H]1CCC(=O)N1 [Example 74, (S)-5-(((4-(4-(2-chloro-3-(5-(4,5-dihydro-1H-imidazol-2-yl)-6-methoxypyridin-2-yl)phenyl)-1H-indazol-1-yl)-2,6-dimethoxybenzyl)amino)methyl)pyrrolidin-2-one] | < 200 | < 1
21 | COc1cc(N2CCc3c(-c4cccc(-c5nc6c(s5)CNCC6)c4C)cccc32)cc(OC)c1CNC[C@@H]1CCC(=O)N1 [Example 85, (S)-5-(((2,6-dimethoxy-4-(4-(2-methyl-3-(4,5,6,7-tetrahydrothiazolo[5,4-c]pyridin-2-yl)phenyl)indolin-1-yl)benzyl)amino)methyl)pyrrolidin-2-one] | > 2000 | 10 to 100
22 | COc1cc(-n2ccc3c(-c4cccc(-c5ccc(CNCC(C)(C)C(=O)O)c(OC)n5)c4Cl)cccc32)cc(OC)c1CNC[C@@H]1CCC(=O)N1 [Example 48] | > 2000 | 10 to 100
23 | COc1cc(-n2ccc3c(-c4ccc5c(c4)OCCO5)cccc32)cc(OC)c1CNC(C)(CO)C(=O)O (stereo not shown) [Example 1, 2-((4-(4-(2,3-dihydrobenzo[b][1,4]dioxin-6-yl)-1H-indol-1-yl)-2,6-dimethoxybenzyl)amino)-3-hydroxy-2-methylpropanoic acid] | > 2000 | 10 to 100
